This note sets out measurements from US20230203060A1 (GENFLEET THERAPEUTICS (SHANGHAI) INC., priority 2020, published 2023).

Read-outs that look alike come from different tables or passages of the source. Where only a bound is given, the exact number is not on record here.

Test [1] has as its system KRAS G12C mutant NCI-H358 cells. Put plainly: Cell proliferation inhibition experiment, 3D spheroid, CellTiter-Glo, NCI-H358. The test is classed as cell-based, human. The following applies: NCI-H358 (KRAS G12C mutant) 3D spheroid, 5 days with compound, CellTiter-Glo, read-out: H358 IC50. An outline of the steps:
(§1)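 First, H358 (800/well) or A549 (400/well) cells are plated in 2% FBS medium and left overnight to form spheroids. Next, compound is added as a 3.16-fold gradient at 0.1% DMSO for 5 days. Finally, CellTiter-Glo signal is read and IC50 derived by four-parameter fitting.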

For test [2], the system named is A549 cells (KRAS G12S mutant). Put plainly: Cell proliferation inhibition experiment, 3D spheroid, CellTiter-Glo, A549. The test is classed as cell-based, human. The following applies: A549 (KRAS G12S mutant) 3D spheroid, 5 days with compound, CellTiter-Glo, read-out: A549 IC50. An outline of the steps: as §1

As to `C=CC(=O)N1CCN2C(=O)c3c(OC4CCN(C)CC4)nc(-c4c(O)cccc4F)c(Cl)c3OC[C@H]2C1` [Z61, (6aR)-8-acryloyl-4-chloro-3-(2-fluoro-6-hydroxyphenyl)-1-((1-methylpiperidin-4-yl)oxy)-6,6a,7,8,9,10-hexahydro-12H-pyrazino[2,1-c]pyrido[3,4-f][1,4]oxazepin-12-one], the concentration for half-maximal inhibition (IC50) in test [1] (Homo sapiens, NCI-H358, 120 h) is 33 nM; in test [2] (Homo sapiens, A549, 120 h), greater than 30 µM.
Taken in the same sequence, the figures for `C=CC(=O)N1CCN2C(=O)c3c(N4C[C@@H](O)C[C@@H]4C)nc(-c4c(O)cccc4F)c(Cl)c3OC[C@H]2C1` [Z260, (6aR)-8-acryloyl-4-chloro-3-(2-fluoro-6-hydroxyphenyl)-1-((2S,4S)-4-hydroxy-2-methylpyrrolidin-1-yl)-6,6a,7,8,9,10-hexahydro-12H-pyrazino[2,1-c]pyrido[3,4-f][1,4]oxazepin-12-one] were 5 nM and 27.8 µM.
Consider `C=CC(=O)N1CCN2C(=O)c3c(N4CCN(CCO)C[C@@H]4C)nc(-c4c(O)cccc4F)c(Cl)c3OC[C@H]2C1` [Z257, (6aR)-8-acryloyl-4-chloro-3-(2-fluoro-6-hydroxyphenyl)-1-((S)-4-(2-hydroxyethyl)-2-methylpiperazin-1-yl)-6,6a,7 ,8,9,10-hexahydro-12H-pyrazino[2,1-c]pyrido[3,4-f][1,4]oxazepin-12-one], for which the concentration for half-maximal inhibition (IC50) in test [1] (Homo sapiens, NCI-H358, 120 h) is 10.2 nM; in test [2] (Homo sapiens, A549, 120 h), greater than 30 µM.
As to `C=CC(=O)N1CCN2C(=O)c3c(N4CC(N(C)C5COC5)CC4(C)C)nc(-c4c(O)cccc4F)c(Cl)c3OC[C@H]2C1` (single isomer, unassigned) [Z331-1], the IC50 in test [1] is 0.5 nM; in test [2] (Homo sapiens, A549, 120 h), 8.33 µM.
For `C=CC(=O)N1CCN2C(=O)c3c(C4NCCN5C(=O)CCC45C)nc(-c4c(O)cccc4F)c(Cl)c3OC[C@H]2C1` (stereo partly drawn) [Z337, (6aR)-8-acryloyl-4-chloro-3-(2-fluoro-6-hydroxyphenyl)-1-(8a-methylhexahydropyrrolo[1,2-a]pyrazin-6 (2H)-one-1-yl)-6,6a,7,8,9,10-hexahydro-12H-pyrazino[2,1-c]pyrido[3,4-f][1,4]oxazepin-12-one], the figures for the IC50 in test [1] and in test [2] were 15 nM and greater than 30 µM, respectively.
